# Results from PubChem BioAssay (NCI).
#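 Growth conditions: 96-well plates. Treatment: test compound, 48 hours, 5 concentrations. Analysis: linear interpolation between bracketing concentrations; unreached endpoints set to highest concentration. GI50: concentration for 50% inhibition of growth. TGI marks complete inhibition of growth.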
# How the values were obtained:
# Assay in all cases: DTP human tumour cell line panel, 48 h
# HT29 colon = system: HT29 colon
# SR leukemia = system: SR leukemia
# DU-145 prostate = system: DU-145 prostate
# U251 CNS = system: U251 CNS
# CAKI-1 renal = system: CAKI-1 renal
# PC-3 prostate = system: PC-3 prostate
# RXF 393 renal = system: RXF 393 renal
# HCT-116 colon = system: HCT-116 colon
# SK-OV-3 ovarian = system: SK-OV-3 ovarian
# EKVX NSCLC = system: EKVX NSCLC
# SN12C renal = system: SN12C renal
# M14 melanoma = system: M14 melanoma
# HOP-62 NSCLC = system: HOP-62 NSCLC
# SK-MEL-5 melanoma = system: SK-MEL-5 melanoma
# UO-31 renal = system: UO-31 renal
# SF-268 CNS = system: SF-268 CNS
# IGROV1 ovarian = system: IGROV1 ovarian
# SW-620 colon = system: SW-620 colon
# A549 NSCLC = system: A549 NSCLC
# OVCAR-5 ovarian = system: OVCAR-5 ovarian
# RPMI-8226 leukemia = system: RPMI-8226 leukemia
# MALME-3M melanoma = system: MALME-3M melanoma
# OVCAR-3 ovarian = system: OVCAR-3 ovarian
# CCRF-CEM leukemia = system: CCRF-CEM leukemia
# COLO 205 colon = system: COLO 205 colon
# OVCAR-8 ovarian = system: OVCAR-8 ovarian
# SF-295 CNS = system: SF-295 CNS
# UACC-62 melanoma = system: UACC-62 melanoma
# KM12 colon = system: KM12 colon
compound,measurement,setting,value
C#C[C@]1(O)CC[C@H]2[C@@H]3CC=C4c5sc(N=C(N)N)nc5CC[C@]4(C)[C@H]3CC[C@@]21C,GI50,HT29 colon,0.361 µM
same,TGI,HT29 colon,1.69 µM
same,GI50,SR leukemia,0.348 µM
same,TGI,SR leukemia,1.98 µM
same,GI50,DU-145 prostate,1.19 µM
same,TGI,DU-145 prostate,2.67 µM
same,GI50,U251 CNS,0.388 µM
same,TGI,U251 CNS,1.85 µM
same,GI50,CAKI-1 renal,0.615 µM
same,TGI,CAKI-1 renal,1.82 µM
same,GI50,PC-3 prostate,0.475 µM
same,TGI,PC-3 prostate,1.8 µM
same,GI50,RXF 393 renal,0.141 µM
same,TGI,RXF 393 renal,0.555 µM
same,GI50,HCT-116 colon,0.989 µM
same,TGI,HCT-116 colon,2.29 µM
same,GI50,SK-OV-3 ovarian,1.05 µM
same,TGI,SK-OV-3 ovarian,2.33 µM
same,GI50,EKVX NSCLC,1.25 µM
same,TGI,EKVX NSCLC,2.85 µM
same,GI50,SN12C renal,1.31 µM
same,TGI,SN12C renal,2.72 µM
same,GI50,M14 melanoma,0.497 µM
same,TGI,M14 melanoma,1.56 µM
same,GI50,HOP-62 NSCLC,0.984 µM
same,TGI,HOP-62 NSCLC,2.62 µM
same,GI50,SK-MEL-5 melanoma,0.628 µM
same,TGI,SK-MEL-5 melanoma,1.66 µM
same,GI50,UO-31 renal,0.307 µM
same,TGI,UO-31 renal,0.931 µM
same,GI50,SF-268 CNS,0.959 µM
same,TGI,SF-268 CNS,2.75 µM
same,GI50,IGROV1 ovarian,1.03 µM
same,TGI,IGROV1 ovarian,2.41 µM
same,GI50,SW-620 colon,0.541 µM
same,TGI,SW-620 colon,1.96 µM
same,GI50,A549 NSCLC,0.865 µM
same,TGI,A549 NSCLC,2.72 µM
same,GI50,OVCAR-5 ovarian,1.33 µM
same,TGI,OVCAR-5 ovarian,2.65 µM
same,GI50,RPMI-8226 leukemia,0.153 µM
same,TGI,RPMI-8226 leukemia,0.864 µM
same,GI50,MALME-3M melanoma,0.338 µM
same,TGI,MALME-3M melanoma,1.19 µM
same,GI50,OVCAR-3 ovarian,1.36 µM
same,TGI,OVCAR-3 ovarian,2.82 µM
same,GI50,CCRF-CEM leukemia,0.365 µM
same,TGI,CCRF-CEM leukemia,3.43 µM
same,GI50,COLO 205 colon,0.667 µM
same,TGI,COLO 205 colon,2.24 µM
same,GI50,OVCAR-8 ovarian,1.63 µM
same,TGI,OVCAR-8 ovarian,4.53 µM
same,GI50,SF-295 CNS,0.188 µM
same,TGI,SF-295 CNS,0.452 µM
same,GI50,UACC-62 melanoma,0.248 µM
same,TGI,UACC-62 melanoma,0.657 µM
same,GI50,KM12 colon,1.1 µM
same,TGI,KM12 colon,2.55 µM
